PubChem BioAssay (NCI)
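Each compound was tested at five concentrations against cells in 96-well plates for 48 hours. Definition used: TGI = concentration required for complete inhibition of growth.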

How the values were obtained:
Assay in all cases: NCI-60 cell line screen, 48 h
[1] = test system: EKVX NSCLC
[2] = test system: SF-268 CNS
[3] = test system: LOX IMVI melanoma
[4] = test system: SN12C renal
[5] = test system: HCT-116 colon
[6] = test system: TK-10 renal
[7] = test system: MOLT-4 leukemia
[8] = test system: IGROV1 ovarian
[9] = test system: OVCAR-5 ovarian
[10] = test system: SK-MEL-28 melanoma
[11] = test system: SW-620 colon
[12] = test system: MALME-3M melanoma
[13] = test system: K-562 leukemia
[14] = test system: M14 melanoma
[15] = test system: RXF 393 renal
[16] = test system: SK-MEL-5 melanoma
[17] = test system: UACC-62 melanoma
[18] = test system: SF-295 CNS
[19] = test system: A498 renal
[20] = test system: OVCAR-4 ovarian
[21] = test system: CAKI-1 renal
[22] = test system: DMS 114 small cell lung
[23] = test system: CCRF-CEM leukemia
[24] = test system: NCI-H23 lung
[25] = test system: LXFL 529 NSCLC
[26] = test system: UACC-257 melanoma
[27] = test system: HCC-2998 colon
[28] = test system: 786-0 renal
[29] = test system: DMS 273 small cell lung
[30] = test system: HOP-62 NSCLC
[31] = test system: NCI-H460 lung
[32] = test system: ACHN renal
[33] = test system: SF-539 CNS
[34] = test system: SNB-19 CNS
[35] = test system: A549 NSCLC
[36] = test system: M19-MEL melanoma
[37] = test system: KM20L2 colon
[38] = test system: HL-60(TB) leukemia
[39] = test system: SNB-78 CNS
[40] = test system: DLD-1 colon
[41] = test system: SK-OV-3 ovarian
[42] = test system: RXF-631 renal
[43] = test system: KM12 colon
[44] = test system: SK-MEL-2 melanoma
[45] = test system: HT29 colon
[46] = test system: HCT-15 colon
[47] = test system: COLO 205 colon
[48] = test system: UO-31 renal
[49] = test system: U251 CNS
[50] = test system: OVCAR-8 ovarian
[51] = test system: SNB-75 CNS
[52] = test system: RPMI-8226 leukemia
[53] = test system: OVCAR-3 ovarian
[54] = test system: NCI-H522 lung
[55] = test system: XF 498 CNS
[56] = test system: NCI-H226 lung
[57] = test system: T-47D breast
[58] = test system: NCI/ADR-RES ovarian
[59] = test system: SR leukemia
[60] = test system: MDA-N
[61] = test system: MDA-MB-231 breast
[62] = test system: HOP-92 NSCLC
[63] = test system: MDA-MB-435
[64] = test system: PC-3 prostate
[65] = test system: HS 578T breast
[66] = test system: HOP-18 NSCLC
[67] = test system: DU-145 prostate
[68] = test system: MCF7 breast
[69] = test system: BT-549 breast

`N#CCC(=O)N1CCCOCCC1` gave a TGI [1] of over 100 µM, a TGI [2] of over 100 µM and a TGI [3] of over 100 µM. For the same molecule, the TGI [4] was over 100 µM, the TGI [5] was over 100 µM and the TGI [6] was over 100 µM. The TGI [7] was 7.36 µM, the TGI [8] was over 100 µM and the TGI [9] was over 100 µM. For the same molecule, the TGI [10] was over 100 µM, the TGI [11] was 24.3 µM and the TGI [12] was over 100 µM. It also gave a TGI [13] of over 100 µM, a TGI [14] of over 100 µM and a TGI [15] of over 100 µM. It also gave a TGI [16] of over 100 µM, a TGI [17] of over 100 µM and a TGI [18] of over 100 µM. The TGI [19] was over 100 µM, the TGI [20] was over 100 µM and the TGI [21] was over 100 µM. The TGI [22] was over 100 µM, the TGI [23] was over 100 µM and the TGI [24] was over 100 µM. The TGI [25] was over 100 µM, the TGI [26] was over 100 µM and the TGI [27] was over 100 µM. For the same molecule, the TGI [28] was over 100 µM, the TGI [29] was over 100 µM and the TGI [30] was over 100 µM. For the same molecule, the TGI [31] was over 100 µM, the TGI [32] was over 100 µM and the TGI [33] was over 100 µM. It also gave a TGI [34] of over 100 µM, a TGI [35] of over 100 µM and a TGI [36] of over 100 µM. It also gave a TGI [37] of over 100 µM, a TGI [38] of over 100 µM and a TGI [39] of over 100 µM. The TGI [40] was over 100 µM, the TGI [41] was over 100 µM and the TGI [42] was over 100 µM. For the same molecule, the TGI [43] was over 100 µM, the TGI [44] was over 100 µM and the TGI [45] was over 100 µM. For the same molecule, the TGI [46] was 37.7 µM, the TGI [47] was 42.2 µM and the TGI [48] was over 100 µM. It also gave a TGI [49] of over 100 µM.
In the case of `CC12CCCCC1C(=O)C2(Cl)Cl` (centres undefined), the TGI [1] is reported as 11 µM, the TGI [2] is reported as 14.6 µM and the TGI [3] is reported as 6.1 µM. It also gave a TGI [4] of 12.3 µM, a TGI [5] of 3.51 µM and a TGI [6] of 11.3 µM. For the same molecule, the TGI [7] was 5.44 µM, the TGI [8] was 9.95 µM and the TGI [9] was 8.96 µM. The TGI [10] was 4.18 µM, the TGI [11] was 4.47 µM and the TGI [12] was 4.19 µM. The TGI [13] was 4.37 µM, the TGI [14] was 5.32 µM and the TGI [15] was 14.3 µM. It also gave a TGI [50] of 5.16 µM, a TGI [16] of 3.82 µM and a TGI [17] of 6.09 µM. The TGI [18] was 3.38 µM, the TGI [51] was 18.3 µM and the TGI [19] was 12.7 µM. It also gave a TGI [20] of 12.5 µM, a TGI [21] of 10.1 µM and a TGI [52] of 3.79 µM. For the same molecule, the TGI [23] was 5.45 µM, the TGI [24] was 8.59 µM and the TGI [25] was 6 µM. It also gave a TGI [53] of 3.58 µM, a TGI [26] of 5.63 µM and a TGI [54] of 4.61 µM. The TGI [27] was 4.22 µM, the TGI [28] was 4.73 µM and the TGI [29] was 5.4 µM. It also gave a TGI [30] of 4.92 µM, a TGI [31] of 6.37 µM and a TGI [32] of 5.91 µM. For the same molecule, the TGI [33] was 5.18 µM, the TGI [35] was 11.2 µM and the TGI [38] was 3.88 µM. For the same molecule, the TGI [39] was 17.9 µM, the TGI [40] was 6.22 µM and the TGI [42] was 5 µM. The TGI [43] was 4.97 µM, the TGI [44] was 4.41 µM and the TGI [45] was 3.06 µM. For the same molecule, the TGI [46] was 11.3 µM, the TGI [55] was 4.19 µM and the TGI [48] was 5.23 µM. It also gave a TGI [49] of 5.56 µM.
In the case of `O=C(CSc1ncnc2nc[nH]c12)c1ccccc1`, the TGI [1] is reported as over 100 µM, the TGI [56] is reported as over 100 µM and the TGI [2] is reported as over 100 µM. The TGI [3] was over 100 µM, the TGI [4] was over 100 µM and the TGI [5] was over 100 µM. The TGI [6] was over 100 µM, the TGI [7] was over 100 µM and the TGI [8] was over 100 µM. The TGI [9] was over 100 µM, the TGI [10] was over 100 µM and the TGI [11] was over 100 µM. The TGI [12] was over 100 µM, the TGI [13] was over 100 µM and the TGI [57] was over 100 µM. It also gave a TGI [14] of over 100 µM, a TGI [15] of over 100 µM and a TGI [50] of over 100 µM. The TGI [16] was over 100 µM, the TGI [17] was over 100 µM and the TGI [18] was over 100 µM. The TGI [19] was over 100 µM, the TGI [20] was over 100 µM and the TGI [21] was over 100 µM. The TGI [58] was over 100 µM, the TGI [52] was over 100 µM and the TGI [22] was over 100 µM. It also gave a TGI [23] of over 100 µM, a TGI [24] of over 100 µM and a TGI [25] of over 100 µM. The TGI [53] was over 100 µM, the TGI [59] was over 100 µM and the TGI [26] was over 100 µM. For the same molecule, the TGI [54] was over 100 µM, the TGI [28] was over 100 µM and the TGI [29] was over 100 µM. For the same molecule, the TGI [30] was over 100 µM, the TGI [31] was over 100 µM and the TGI [32] was over 100 µM. The TGI [60] was over 100 µM, the TGI [33] was over 100 µM and the TGI [61] was over 100 µM. For the same molecule, the TGI [34] was over 100 µM, the TGI [35] was over 100 µM and the TGI [62] was over 100 µM. For the same molecule, the TGI [36] was over 100 µM, the TGI [37] was over 100 µM and the TGI [63] was over 100 µM. It also gave a TGI [38] of over 100 µM, a TGI [39] of over 100 µM and a TGI [64] of over 100 µM. For the same molecule, the TGI [40] was over 100 µM, the TGI [41] was over 100 µM and the TGI [43] was over 57.1 µM. The TGI [44] was over 57.8 µM, the TGI [45] was over 100 µM and the TGI [65] was over 100 µM. It also gave a TGI [66] of over 100 µM, a TGI [46] of over 100 µM and a TGI [55] of over 100 µM. For the same molecule, the TGI [67] was over 100 µM, the TGI [47] was over 100 µM and the TGI [48] was over 100 µM. It also gave a TGI [68] of over 100 µM, a TGI [69] of over 100 µM and a TGI [49] of over 100 µM.
